Measured values taken from patent US20210355109A1, “CRYSTAL FORM OF MALEATE OF TYROSINE KINASE INHIBITOR AND PREPARATION METHOD THEREFOR” (JIANGSU HENGRUI MEDICINE CO., LTD., priority 2018, published 2021).

How the values were obtained:
Assay type in all cases: physicochemical
[1] = Influencing-factor stability of I crystal form and amorphous form, purity by HPLC (Agilent1200 DAD); details: for stability after long-term storage (in words): high temperature, high humidity
Source text: The stability of the I crystal form of the compound represented by formula (I) was investigated. The purity of the crystal form was detected by Agilent1200 DAD high performance liquid chromatography system, and Waters symmetry C18, (250*4.6 mm, 5 μm) was used as the detection column, mobile phase: sodium dihydrogen phosphate/ACN/H2O, detection wavelength: 261 nm.

[2] = Influencing-factor stability of I and IV crystal forms, purity by HPLC (Thermo Ultimate3000DAD); details: for crystal stability (in words): conditions of light, high temperature, and high humidity
Source text: The stability of the I and IV crystal form of the compound represented by formula (I) was investigated. The purity of the crystal forms was detected by Thermo Ultimate3000DAD high-performance liquid chromatography system, and Waters symmetry C18, (250*4.6 mm, 5 μm) was used as the detection chromatographic column, mobile phase: sodium dihydrogen phosphate/ACN/H2O, detection wavelength: 261 nm.

[3] = Solid properties / fluidity of crystal form

purity % ([1]; 40° C., day 0) [%] | purity % ([1]; 40° C., day 5) [%] | purity % ([1]; 40° C., day 10) [%] | purity % ([1]; 40° C., day 30) [%] | purity % ([1]; RH 75%, day 0) [%] | purity % ([1]; RH 75%, day 5) [%] | purity % ([1]; RH 75%, day 10) [%] | purity % ([1]; RH 75%, day 30) [%] | purity % ([1]; RH 90%, day 0) [%] | purity % ([1]; RH 90%, day 5) [%] | purity % ([1]; RH 90%, day 10) [%] | purity % ([1]; RH 90%, day 30) [%] | purity % ([1]; illumination, day 0) [%] | purity % ([1]; illumination, day 5) [%] | purity % ([1]; illumination, day 10) [%] | purity % ([1]; illumination, day 30) [%] | purity % ([2]; 40° C., day 0) [%] | purity % ([2]; 40° C., day 5) [%] | purity % ([2]; 40° C., day 10) [%] | purity % ([2]; 40° C., day 30) [%] | SMILES | other results
99.56 | 99.55 | 99.51 | 99.43 | 99.56 | 99.53 | 99.53 | 99.52 | 99.56 | 99.53 | 99.54 | 99.51 | 99.56 | 99.35 | 99.29 | 99.00 | 99.83 | 99.78 | 99.77 | 99.69 | CCOc1cc2ncc(C#N)c(Nc3ccc(OCc4ccccn4)c(Cl)c3)c2cc1NC(=O)/C=C/[C@H]1CCCN1C.O=C(O)/C=C\C(=O)O [I crystal form] | stability after long-term storage (in words) ([1]; illumination): good physical and chemical stability; purity % ([2]; 60° C., day 0): 99.83%; purity % ([2]; 60° C., day 5): 99.64%; purity % ([2]; 60° C., day 10): 99.51%; purity % ([2]; 60° C., day 30): 99.24%; purity % ([2]; RH 75%, day 0): 99.83%; purity % ([2]; RH 75%, day 5): 99.81%; purity % ([2]; RH 75%, day 10): 99.81%; purity % ([2]; RH 75%, day 30): 99.68%; purity % ([2]; RH 90%, day 0): 99.83%; purity % ([2]; RH 90%, day 5): 99.81%; purity % ([2]; RH 90%, day 10): 99.82%; purity % ([2]; RH 90%, day 30): 99.82%; crystal stability (in words) [2]: good crystal stability; purity % ([2]; illumination, day 0): 99.83%; purity % ([2]; illumination, day 5): 99.68%; purity % ([2]; illumination, day 10): 99.59%; purity % ([2]; illumination, day 30): 99.29%
– | – | – | – | – | – | – | – | – | – | – | – | – | – | – | – | – | – | – | – | CCOc1cc2ncc(C#N)c(Nc3ccc(OCc4ccccn4)c(Cl)c3)c2cc1NC(=O)/C=C/[C@H]1CCCN1C.O=C(O)/C=C\C(=O)O [II crystal form] | fluidity [3]: poor
– | – | – | – | – | – | – | – | – | – | – | – | – | – | – | – | 99.94 | 99.92 | 99.93 | 99.85 | CCOc1cc2ncc(C#N)c(Nc3ccc(OCc4ccccn4)c(Cl)c3)c2cc1NC(=O)/C=C/[C@H]1CCCN1C.O=C(O)/C=C\C(=O)O [IV crystal form] | purity % ([2]; 60° C., day 0): 99.94%; purity % ([2]; 60° C., day 5): 99.83%; purity % ([2]; 60° C., day 10): 99.77%; purity % ([2]; 60° C., day 30): 99.50%; purity % ([2]; RH 75%, day 0): 99.94%; purity % ([2]; RH 75%, day 5): 99.93%; purity % ([2]; RH 75%, day 10): 99.94%; purity % ([2]; RH 75%, day 30): 99.94%; purity % ([2]; RH 90%, day 0): 99.94%; purity % ([2]; RH 90%, day 5): 99.93%; purity % ([2]; RH 90%, day 10): 99.94%; purity % ([2]; RH 90%, day 30): 99.93%; crystal stability (in words) [2]: good crystal stability; purity % ([2]; illumination, day 0): 99.94%; purity % ([2]; illumination, day 5): 99.92%; purity % ([2]; illumination, day 10): 99.92%; purity % ([2]; illumination, day 30): 99.85%
99.31 | 99.21 | 99.13 | 98.57 | 99.31 | 99.35 | 99.33 | 99.09 | 99.31 | 95.76 | 94.05 | 85.09 | 99.31 | 98.04 | 96.65 | 93.48 | – | – | – | – | CCOc1cc2ncc(C#N)c(Nc3ccc(OCc4ccccn4)c(Cl)c3)c2cc1NC(=O)/C=C/[C@H]1CCCN1C.O=C(O)/C=C\C(=O)O [amorphous, reference compound] | stability after long-term storage (in words) ([1]; illumination, listed as amorphous form): poor stability
